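Briefly, cells in 96-well plates were exposed to five compound concentrations for 48 h, and endpoints were estimated by linear interpolation. At the TGI there is no net growth.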

Some test systems named below: HL-60(TB) leukemia; NCI-H522 lung; RXF 393 renal; MDA-MB-231 breast; SK-MEL-2 melanoma; SR leukemia; MDA-MB-435; OVCAR-8 ovarian; SNB-75 CNS; A498 renal; RPMI-8226 leukemia; M14 melanoma; U251 CNS; K-562 leukemia; OVCAR-3 ovarian; UACC-62 melanoma; NCI-H23 lung; MOLT-4 leukemia.
What all share (assay): NCI anticancer screen, dose series, 48 h

On to `N=C(/C=C/c1ccc(-c2cn3cc(/C=C/C(=N)N4CCCC4)ccc3n2)cc1)N1CCCC1`, for which the TGI in the test with HL-60(TB) leukemia, with NCI-H522 lung, in the test on RXF 393 renal, in the test with MDA-MB-231 breast, in the test with SK-MEL-2 melanoma and with SR leukemia was greater than 100 µM each time. Moreover, the TGI in the test on MDA-MB-435, in the test with OVCAR-8 ovarian, with SNB-75 CNS, in the test on A498 renal, in the test with RPMI-8226 leukemia and in the test with M14 melanoma was greater than 100 µM throughout. Also, the TGI in the test with U251 CNS, with K-562 leukemia, in the test with OVCAR-3 ovarian, with UACC-62 melanoma, in the test with NCI-H23 lung and in the test with MOLT-4 leukemia was greater than 100 µM throughout.
Consider `O/N=c1/ccn(O)c2ccccc12`, for which the TGI worked out at 8.8 µM in the test on HL-60(TB) leukemia; 3.23 µM in the test on NCI-H522 lung; 1.64 µM with RXF 393 renal; 5.4 µM in the test on MDA-MB-231 breast; 3.64 µM with SK-MEL-2 melanoma; 55.8 µM with SR leukemia. The TGI with MDA-MB-435 came out at 17.4 µM; with OVCAR-8 ovarian, 1.81 µM; with SNB-75 CNS it was 1.98 µM; in the test with A498 renal, 1.75 µM; in the test with RPMI-8226 leukemia it was 0.542 µM; in the test with M14 melanoma, 6.87 µM. For the same compound, the TGI was 6.65 µM in the test on U251 CNS; greater than 19.9 µM in the test with K-562 leukemia; 6.59 µM in the test on OVCAR-3 ovarian; 2.53 µM in the test on UACC-62 melanoma; 8.96 µM in the test with NCI-H23 lung.
For the compound `Cn1c(=O)n2n(c1=O)Cc1cccc3cccc(c13)C2`, the TGI in the test on HL-60(TB) leukemia was 4.18 µM; in the test with NCI-H522 lung, greater than 100 µM; in the test on RXF 393 renal it was greater than 100 µM; in the test on MDA-MB-231 breast, greater than 100 µM; with SK-MEL-2 melanoma, greater than 100 µM; in the test with SR leukemia it was greater than 100 µM. Moreover, the TGI in the test with MDA-MB-435, in the test with OVCAR-8 ovarian, with SNB-75 CNS, in the test on A498 renal, with RPMI-8226 leukemia and in the test on M14 melanoma was greater than 100 µM each time. The TGI with U251 CNS, in the test with K-562 leukemia, with OVCAR-3 ovarian, with UACC-62 melanoma, with NCI-H23 lung and in the test on MOLT-4 leukemia was greater than 100 µM each time.
For `O=C(NCCN1C(=O)CN=C(c2ccc(Cl)cc2)c2cc(Cl)ccc21)OCc1ccccc1`, the TGI in the test on HL-60(TB) leukemia was 38.1 µM; in the test with NCI-H522 lung, 49.9 µM; in the test on RXF 393 renal it was 23.8 µM; with MDA-MB-231 breast, 32.3 µM; with SK-MEL-2 melanoma it was 36 µM; with SR leukemia, 33.3 µM. Besides, the TGI came to 32.9 µM in the test with MDA-MB-435; 38.3 µM in the test on OVCAR-8 ovarian; 42.2 µM in the test on SNB-75 CNS; 24.5 µM in the test on A498 renal; 53.9 µM in the test on RPMI-8226 leukemia; 34.9 µM in the test on M14 melanoma. Further, the TGI was 30.1 µM with U251 CNS; 31.1 µM in the test on K-562 leukemia; 26 µM in the test on OVCAR-3 ovarian; 38.7 µM in the test on UACC-62 melanoma; 33.8 µM in the test on NCI-H23 lung; greater than 100 µM with MOLT-4 leukemia.
Turning to `CC(C)(C)c1cc(C(=O)/C=C/c2ccc(O)c(O)c2O)cc(C(C)(C)C)c1O`, the TGI was determined as 5.82 µM in the test with HL-60(TB) leukemia; 4.94 µM in the test with NCI-H522 lung; 13.3 µM in the test on RXF 393 renal; 36 µM with MDA-MB-231 breast; 19.2 µM in the test on SK-MEL-2 melanoma; 4.67 µM in the test on SR leukemia. The TGI was 36.7 µM in the test with MDA-MB-435; greater than 63.7 µM in the test on OVCAR-8 ovarian; 12.6 µM with SNB-75 CNS; 34.4 µM in the test on A498 renal; 4.4 µM in the test on RPMI-8226 leukemia; 20.6 µM in the test on M14 melanoma. The TGI with U251 CNS is 12.3 µM; in the test with K-562 leukemia it was 21.7 µM; in the test with OVCAR-3 ovarian it was greater than 100 µM; with UACC-62 melanoma, 18.8 µM; in the test with NCI-H23 lung, 20 µM; with MOLT-4 leukemia, 28.9 µM.
As to `O=C1C(C(O)(C(F)(F)Cl)C(F)(F)Cl)CCC1C(O)(C(F)(F)Cl)C(F)(F)Cl` (stereo not drawn), the TGI with HL-60(TB) leukemia is greater than 10 µM; in the test with NCI-H522 lung it was greater than 10 µM; with RXF 393 renal, greater than 10 µM; in the test with MDA-MB-231 breast, greater than 10 µM; in the test with SK-MEL-2 melanoma, 5.72 µM; in the test with SR leukemia it was greater than 10 µM. For the same compound, the TGI in the test with MDA-MB-435, in the test on OVCAR-8 ovarian, with SNB-75 CNS, with A498 renal, in the test on RPMI-8226 leukemia and in the test on M14 melanoma was greater than 10 µM each time. Moreover, the TGI with U251 CNS was greater than 10 µM; in the test on K-562 leukemia it was greater than 10 µM; with OVCAR-3 ovarian it was greater than 10 µM; in the test on UACC-62 melanoma, greater than 10 µM; in the test on NCI-H23 lung it was 6.19 µM; in the test on MOLT-4 leukemia, greater than 10 µM.
For the compound `COC(=O)C1Cc2c([nH]c3ccccc23)C(c2cccc(O)c2)N1` (stereo not drawn), the TGI in the test with HL-60(TB) leukemia was 48.2 µM; in the test on NCI-H522 lung, greater than 100 µM; in the test with RXF 393 renal, 55.4 µM; in the test with MDA-MB-231 breast it was 51.2 µM; in the test with SK-MEL-2 melanoma it was 83.3 µM; in the test on SR leukemia, 76.1 µM. The TGI in the test with MDA-MB-435 is 36.6 µM; in the test with OVCAR-8 ovarian, greater than 100 µM; with SNB-75 CNS it was 74.3 µM; in the test with A498 renal it was greater than 100 µM; in the test with RPMI-8226 leukemia, 87.3 µM; with M14 melanoma, 47.4 µM. Besides, the TGI was greater than 100 µM in the test with U251 CNS; greater than 100 µM in the test with K-562 leukemia; greater than 100 µM with OVCAR-3 ovarian; greater than 100 µM in the test on UACC-62 melanoma; 96.8 µM in the test on NCI-H23 lung; greater than 100 µM with MOLT-4 leukemia.
On to `O=C(O)C(Cc1ccc2c(c1)CCC2)(Cc1ccc2c(c1)CCC2)C(=O)O`, for which the TGI with HL-60(TB) leukemia, in the test with NCI-H522 lung, in the test with RXF 393 renal, in the test with MDA-MB-231 breast, with SK-MEL-2 melanoma and with SR leukemia was greater than 100 µM in each case. The TGI with MDA-MB-435, in the test with OVCAR-8 ovarian, with SNB-75 CNS, in the test on A498 renal, in the test on RPMI-8226 leukemia and in the test on M14 melanoma was greater than 100 µM each time. Further, the TGI in the test with U251 CNS, with K-562 leukemia, in the test with OVCAR-3 ovarian, in the test on UACC-62 melanoma, in the test with NCI-H23 lung and with MOLT-4 leukemia was greater than 100 µM each time.

The values above are taken from PubChem BioAssay (NCI).
